Assays:
[1] = Metabolic stability in liver microsomes, rat; type: in vitro ADME; settings: 1 μM, 0.5 mg/mL
Description: (§1) Objective: To test the metabolic stability of the test compound in liver microsomes of three species.
(§2) Procedures: 1 μM test compound and microsomes (0.5 mg/mL) were incubated at 37° C. in the presence of an NADPH regeneration system. Positive controls were testosterone ([…]), propylamine propiophenone (2D6 substrate) and diclofenac (2C9 substrate). At 37° C., positive controls were incubated with microsomes (0.5 mg/mL) in the presence of an NADPH regeneration system. The reaction was stopped by direct mixing of the sample with cold acetonitrile containing an internal standard at various time points (0, 5, 10, 20, 30 and 60 min). The compound and microsomes were incubated for 60 min in the absence of an NADPH regeneration system. One replicate (n=1) was set at each time point. The samples were analyzed by LC/MS/MS; the concentration of the compound was characterized by the ratio of the analyte peak area to the internal standard peak area.

CYP3A4-M = CYP3A4-M (Homo sapiens (Human), UniProt P08684); assay: Inhibition against cytochrome P450 isoenzymes, CYP3A4-M; type: in vitro ADME; settings: human liver microsomes
Chain of CYP3A4-M (P08684 whole entry): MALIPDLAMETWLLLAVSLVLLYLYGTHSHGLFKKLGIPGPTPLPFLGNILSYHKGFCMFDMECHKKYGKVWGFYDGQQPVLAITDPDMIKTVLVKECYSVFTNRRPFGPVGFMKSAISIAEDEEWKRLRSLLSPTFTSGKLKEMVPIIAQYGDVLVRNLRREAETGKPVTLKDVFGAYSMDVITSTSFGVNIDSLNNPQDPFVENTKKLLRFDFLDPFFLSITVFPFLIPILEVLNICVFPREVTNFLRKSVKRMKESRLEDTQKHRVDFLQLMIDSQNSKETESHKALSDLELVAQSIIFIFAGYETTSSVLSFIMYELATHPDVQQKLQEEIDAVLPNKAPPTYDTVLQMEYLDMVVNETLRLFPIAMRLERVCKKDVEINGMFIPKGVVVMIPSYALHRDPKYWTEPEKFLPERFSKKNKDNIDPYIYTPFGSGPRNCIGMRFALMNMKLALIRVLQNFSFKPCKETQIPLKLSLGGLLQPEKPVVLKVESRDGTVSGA
Description: (§3) The inhibition of the test compound against different subtypes of the human cytochrome P450 isoenzyme was determined. The test compound, a standard inhibitor (100×final concentration) and a mixed substrate working solution were prepared; the microsomes frozen in a refrigerator at −80° C. were taken out and thawed. […]

CYP2D6 = CYP2D6 (Homo sapiens (Human), UniProt P10635); assay: Inhibition against cytochrome P450 isoenzymes, CYP2D6; type: in vitro ADME; settings: human liver microsomes
Chain of CYP2D6 (P10635 whole entry): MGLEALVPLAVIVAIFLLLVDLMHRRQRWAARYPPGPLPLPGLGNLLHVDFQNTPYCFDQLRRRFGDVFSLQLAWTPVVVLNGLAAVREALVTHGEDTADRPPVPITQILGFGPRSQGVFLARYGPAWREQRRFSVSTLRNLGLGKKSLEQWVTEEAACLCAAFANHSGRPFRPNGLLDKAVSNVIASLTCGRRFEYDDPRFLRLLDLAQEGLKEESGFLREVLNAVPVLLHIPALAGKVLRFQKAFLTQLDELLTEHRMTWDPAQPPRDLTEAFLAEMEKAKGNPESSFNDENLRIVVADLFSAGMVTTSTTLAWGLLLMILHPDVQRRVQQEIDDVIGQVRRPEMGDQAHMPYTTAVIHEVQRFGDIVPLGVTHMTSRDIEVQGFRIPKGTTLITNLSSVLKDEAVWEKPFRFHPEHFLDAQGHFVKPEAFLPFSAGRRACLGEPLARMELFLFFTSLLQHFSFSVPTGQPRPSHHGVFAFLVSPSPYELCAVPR
Description: as §3

PARP1 = PARP1 (Homo sapiens (Human), UniProt P09874); assay: PARP-1 enzymatic assay (HT Universal Chemiluminescent PARP Assay kit); type: biochemical
Chain of PARP1 (P09874 whole entry): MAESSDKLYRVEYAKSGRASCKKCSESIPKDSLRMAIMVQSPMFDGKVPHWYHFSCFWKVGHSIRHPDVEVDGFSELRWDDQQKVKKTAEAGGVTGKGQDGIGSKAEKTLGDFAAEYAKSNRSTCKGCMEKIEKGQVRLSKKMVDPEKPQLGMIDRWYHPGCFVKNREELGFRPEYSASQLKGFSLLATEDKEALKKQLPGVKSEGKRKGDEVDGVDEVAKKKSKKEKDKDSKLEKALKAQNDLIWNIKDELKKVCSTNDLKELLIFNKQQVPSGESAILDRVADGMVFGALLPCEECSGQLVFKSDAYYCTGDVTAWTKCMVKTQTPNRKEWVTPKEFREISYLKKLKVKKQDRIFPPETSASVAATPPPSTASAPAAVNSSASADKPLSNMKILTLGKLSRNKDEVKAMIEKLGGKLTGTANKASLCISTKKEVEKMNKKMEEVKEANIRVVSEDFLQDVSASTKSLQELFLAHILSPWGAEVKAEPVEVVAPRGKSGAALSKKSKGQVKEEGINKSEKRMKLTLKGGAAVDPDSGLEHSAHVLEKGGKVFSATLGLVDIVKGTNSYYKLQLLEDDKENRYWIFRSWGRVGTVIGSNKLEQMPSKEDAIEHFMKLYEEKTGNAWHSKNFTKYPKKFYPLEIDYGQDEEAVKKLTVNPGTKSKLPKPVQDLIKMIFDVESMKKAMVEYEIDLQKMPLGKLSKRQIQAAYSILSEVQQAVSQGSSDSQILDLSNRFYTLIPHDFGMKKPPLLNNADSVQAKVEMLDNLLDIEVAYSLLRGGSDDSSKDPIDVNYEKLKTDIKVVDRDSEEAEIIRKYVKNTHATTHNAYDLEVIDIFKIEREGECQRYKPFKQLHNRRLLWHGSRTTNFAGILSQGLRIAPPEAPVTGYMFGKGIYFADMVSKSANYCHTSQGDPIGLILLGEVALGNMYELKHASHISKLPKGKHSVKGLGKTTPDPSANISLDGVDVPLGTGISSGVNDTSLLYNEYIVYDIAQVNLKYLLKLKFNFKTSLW
Description: Materials: test compounds; HT Universal Chemiluminescent PARP Assay kit (purchased from TREVIGEN); PBS (phosphate buffer saline, purchased from Wisent); Triton X-100 (purchased from Macklin); Envision Multimode Plate Reader (PerkinElmer).
1. Washing solution: Triton X-100 was added to 1×PBS with a final concentration of Triton X-100 of 0.1%.
2. 1×PARP buffer: The 20×PARP buffer in the kit was 20-fold diluted with water to prepare a 1×PARP buffer, which was used to prepare the compounds, enzyme solutions and substrate solutions.
3. 1×Strep-Diluent solution: The 10×Strep-diluent in the kit was 10-fold diluted with water to prepare a 1×Strep-diluent solution.
The test compounds were diluted from 200 μM to 2.56 nM. The DMSO concentration was 100%. 2 μL of each of the inhibitors at various concentration gradients was added to a compound intermediate plate, and 38 μL of the 1×PARP buffer was then added. The two were mixed well for use, and the DMSO concentration was 5% at this time.
a) The 1×PARP buffer was added to a test plate at 50 μL per well, and the test plate was incubated at 25° C. for 30 min. […]
PeroxyGlow A and B in the kit were mixed at a ratio of 1:1, and the mixed solution was added to the test plate at 100 μL per well. Chemiluminescence was immediately read using a PerkinElmer Envision Multimode Plate Reader with an integration time of 0.5 s. […]

[2] = Metabolic stability in liver microsomes, mouse; type: in vitro ADME; settings: 1 μM, 0.5 mg/mL
Description: as §1, §2

For `C[C@]1(c2ccc(-c3[nH]c4cc(F)cc5c4c3CONC5=O)cc2)CCCN1` [Compound 1], the “Residual content after 60 min of incubation” value [1] was 31.8%, the IC50 (CYP3A4-M) was 32.9 µM and the IC50 (CYP2D6) was 11.6 µM. The IC50 (PARP1) was 0.0023 µM and the “Residual content after 60 min of incubation” value [2] was 40.7%.

— patent US20230331739A1, “INDOLO HEPTAMYL OXIME ANALOG CRYSTAL AS PARP INHIBITOR AND METHOD FOR PREPARING SAME” (CHIA TAI TIANQING PHARMACEUTICAL GROUP CO., LTD., priority 2020, published 2023)
